# Assays:
# Assay type in all cases: cell-based, murine
# [1] = tested on: differentiated 3T3-L1 adipocytes; experiment: Intracellular lactate (Lactate-Glo); settings: 1 μM
# Procedure: Intracellular Lactate: Intracellular lactate was measured using the Lactate-Glo™ Assay Kit (Promega®) according to the manufacturer's instructions. 3T3-L1 cells were seeded and differentiated in white clear bottom 96-well plates (Corning®). After differentiation, cells were treated with compound or vehicle as indicated. Following 15 min, 30 min, 1 hr, 4 hr, 8 hr or 24 hr incubation with […] AZD6965, media was removed, and cells were lysed. Lysates were then subjected to a proprietary enzymatic reaction coupling lactate oxidation and NADH production with a bioluminescent detection system supplied by the Lactate-Glo™ Assay kit, and luminescence was read on a spectrophotometer (FlexStation 3; Molecular Devices). The data generated were normalized by dividing the relative luminescence units (RLU) collected for each experimental condition by the average RLU of vehicle control.
# [2] = tested on: differentiated 3T3-L1 (WT) cells; experiment: Glucose uptake (Glucose Uptake-Glo) in WT adipocytes; settings: for insulin-stimulated glucose uptake: then 175 nM insulin 30 minutes
# Procedure: Glucose Uptake: 3T3-L1 cells were seeded and differentiated in clear bottom 96-well plates (Corning®). After differentiation, cells were treated with or without […] AZD3965 for 24 hr, 48 hr or 72 hr as illustrated in FIG. 7 (schematic outline of experimental procedure). The cells were incubated in serum free media the night before performing the assay. The following day/morning, media was changed to serum and glucose free media for 2 hr prior to the experiment. Cells were then stimulated with 175 nM Insulin or vehicle (PBS) for 30 minutes. Glucose Uptake was measured using the Glucose Uptake-Glo™ Assay (Promega®) according to the manufacturer's protocol. The data generated were normalized by dividing the relative luminescence units (RLU) measured in insulin stimulated wells by vehicle treated controls. The aforementioned experiment was repeated in the presence of the CDK1 inhibitor, RO-3306 (10 μM), where indicated (FIG. 5C).
# 3T3-L1 cells = experiment: Oil Red O staining of lipid during preadipocyte differentiation; settings: differentiated in the presence of 1 μM AZD3965, vs control 3T3-L1
# Procedure: Differentiation Protocol: The 3T3-L1 differentiation protocol was adapted from Green and Meuth (1974) (Zebisch, K, et al. Anal. Biochem. 2012 425:88-90; Green, H, et al. Cell 1974 3:127-133). Cells were seeded at approximately 80% confluency and allowed to reach confluency prior to induction of differentiation. 1-2 days post confluency, growth media was changed to ‘day 0’ media consisting of media supplemented with 0.5 mM 1-methyl-3-isobutyl xanthine (IBMX), 1 µM dexamethasone, and 10 μg/mL insulin. On ‘day 3’ media was changed to growth media with 10 μg/mL insulin only, and on ‘day 6’ media was replaced with normal growth media. After day 6, the complete media was refreshed every 2 days. Using Oil Red O staining, RT-qPCR and immunoblotting, it was determined that 3T3-L1 cells were fully differentiated into lipid-laden adipocytes by ‘day 8’ of the protocol, as reported by others (Petersen, C, et al. Sci. Rep. 2017 7:13101; Mangum, L H, et al. Toxicol. Lett. 2015 238:65-71). All differentiation experiments were performed on cells between passage 4 and 6 to ensure differentiation efficiency was consistent. Oil Red O Staining: Cells were then fixed with 4% PFA for 10 minutes. […] 10× images of cells were taken from randomized fields of view with the Cytation 5 Cell Imaging Multi-Mode reader (BioTek Instruments). Lipid content was also quantified on the Cytation 5.
# [3] = tested on: differentiated 3T3-L1 cells; experiment: NADP+ + NADPH bioavailability (NADP+/NADPH-Glo); settings: 1 μM
# Procedure: NADP++NADPH Bioavailability: 3T3-L1 cells were seeded, differentiated and treated with or without AZD3965 (1 μM) for up to 72 hr in clear 96 well plates (Corning®). Following treatment, the NADP+/NADPH-Glo™ (Promega®) kit was used to measure the total NADP++NADPH concentration within each sample according to the manufacturer's instructions. In the presence of either NADP+ or NADPH, an enzyme ‘Reductase’ reduces a pro-luciferin reductase substrate to form luciferin which emits a luminescent signal directly proportional to the quantity of NADP+ and NADPH. Luminescence was read on a spectrophotometer (FlexStation 3; Molecular Devices).
smiles,measurement,setting,value
"Cc1[nH]nc(C(F)(F)F)c1Cc1sc2c(c1C(=O)N1C[C@](C)(O)CO1)c(=O)n(C)c(=O)n2C(C)C [AZD3965, 5-[[(4S)-4-hydroxy-4-methyl-2-isoxazolidinyl]carbonyl]-3-methyl-1-(1-methylethyl)-6-[[5-methyl-3-(trifluoromethyl)-1H-pyrazol-4-yl]methyl]-thieno[2,3-d]pyrimidine-2,4 (1H, 3H)-dione]",intracellular lactate levels relative to basal,[1]; after 24 hr,approximately 2 fold
same,intracellular lactate,"[1]; within 15 minutes, maintained through first 4 hr",significant increase
same,insulin-stimulated glucose uptake,[2]; 1 μM for 24 hr,did not reach statistical significance
same,insulin-stimulated glucose uptake,[2]; 1 μM for 48 hr and 72 hr,significant increase
same,"basal, non-insulin stimulated glucose uptake","[2]; 1 μM, 24-72 hr",no impact
same,lipid content (Oil Red O staining) over the course of differentiation,3T3-L1 cells,significantly less lipid
same,concentration of NADP+/NADPH cofactor species,"[3]; 24 hr, 48 hr and 72 hr","subtle, yet significant decrease"
same,decrease in intracellular concentrations of NADP+ (H),[3]; up to 72 hr,less than 15%
